# Test results reported in patent publication US20210317140A1, “Heterocyclic Compounds and Methods of Use” (MEDIVATION TECHNOLOGIES, INC, priority 2013, published 2021).
# What was measured:
# [1] = target: T1, BTK (Homo sapiens, UniProt Q06187); experiment: BTK kinase assay (HotSpot, 33P ATP); type: biochemical; details: for BTK @ 0.01 μM (% Inh): 0.01 μM compound; for BTK @ 0.01 μM (% Inh) / BTK @ 0.1 μM (% Inh) / BTK @ 1 μM (% Inh): 10 μM ATP; for BTK @ 0.1 μM (% Inh): 0.1 μM compound; for IC50: 10 dose IC50, 10 μM ATP; for BTK @ 1 μM (% Inh): 1 μM compound
# T1 construct: purchased Reaction Biology Corporation
# T1 sequence (Q06187 whole entry): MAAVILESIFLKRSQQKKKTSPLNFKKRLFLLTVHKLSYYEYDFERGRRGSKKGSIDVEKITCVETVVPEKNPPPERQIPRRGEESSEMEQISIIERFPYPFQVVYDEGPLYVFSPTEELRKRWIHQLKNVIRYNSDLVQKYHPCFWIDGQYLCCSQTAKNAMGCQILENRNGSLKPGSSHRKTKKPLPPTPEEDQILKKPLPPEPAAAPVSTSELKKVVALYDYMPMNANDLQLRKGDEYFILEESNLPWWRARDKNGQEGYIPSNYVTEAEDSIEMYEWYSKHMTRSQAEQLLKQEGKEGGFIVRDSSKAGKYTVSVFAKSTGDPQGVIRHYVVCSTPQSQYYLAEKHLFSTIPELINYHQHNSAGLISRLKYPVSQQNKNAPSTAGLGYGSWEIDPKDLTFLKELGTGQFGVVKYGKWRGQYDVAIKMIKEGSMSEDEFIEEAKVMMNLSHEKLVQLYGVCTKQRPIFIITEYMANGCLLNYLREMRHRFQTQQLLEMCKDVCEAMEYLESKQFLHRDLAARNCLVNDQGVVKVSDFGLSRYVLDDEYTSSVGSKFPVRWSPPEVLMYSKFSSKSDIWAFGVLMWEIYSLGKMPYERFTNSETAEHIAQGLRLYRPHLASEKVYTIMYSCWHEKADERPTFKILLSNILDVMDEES
# Summary of the method: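 In 20 mM Hepes (pH 7.5) with 10 mM MgCl2, 1 mM EGTA, 0.1 mM Na3VO4, 2 mM DTT, 0.02% Brij35, 0.02 mg/mL BSA and 1% DMSO, kinase and substrate were exposed to ten compound doses for 15–20 min.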
# [2] = target: T2, PI3Kδ (Homo sapiens, UniProt O00329); experiment: PI3Kδ kinase assay (HTRF, PIP3 detection); type: biochemical; details: for PI3Kδ @ 0.01 μM (% Inh): 0.01 μM compound; for PI3Kδ @ 0.01 μM (% Inh) / PI3Kδ @ 0.1 μM (% Inh) / PI3Kδ @ 1 μM (% Inh): 10 μM ATP; for PI3Kδ @ 0.1 μM (% Inh): 0.1 μM compound; for IC50: 10 dose IC50, 10 μM ATP; for PI3Kδ @ 1 μM (% Inh): 1 μM compound
# T2 construct: purchased Reaction Biology Corporation
# T2 sequence (O00329 whole entry): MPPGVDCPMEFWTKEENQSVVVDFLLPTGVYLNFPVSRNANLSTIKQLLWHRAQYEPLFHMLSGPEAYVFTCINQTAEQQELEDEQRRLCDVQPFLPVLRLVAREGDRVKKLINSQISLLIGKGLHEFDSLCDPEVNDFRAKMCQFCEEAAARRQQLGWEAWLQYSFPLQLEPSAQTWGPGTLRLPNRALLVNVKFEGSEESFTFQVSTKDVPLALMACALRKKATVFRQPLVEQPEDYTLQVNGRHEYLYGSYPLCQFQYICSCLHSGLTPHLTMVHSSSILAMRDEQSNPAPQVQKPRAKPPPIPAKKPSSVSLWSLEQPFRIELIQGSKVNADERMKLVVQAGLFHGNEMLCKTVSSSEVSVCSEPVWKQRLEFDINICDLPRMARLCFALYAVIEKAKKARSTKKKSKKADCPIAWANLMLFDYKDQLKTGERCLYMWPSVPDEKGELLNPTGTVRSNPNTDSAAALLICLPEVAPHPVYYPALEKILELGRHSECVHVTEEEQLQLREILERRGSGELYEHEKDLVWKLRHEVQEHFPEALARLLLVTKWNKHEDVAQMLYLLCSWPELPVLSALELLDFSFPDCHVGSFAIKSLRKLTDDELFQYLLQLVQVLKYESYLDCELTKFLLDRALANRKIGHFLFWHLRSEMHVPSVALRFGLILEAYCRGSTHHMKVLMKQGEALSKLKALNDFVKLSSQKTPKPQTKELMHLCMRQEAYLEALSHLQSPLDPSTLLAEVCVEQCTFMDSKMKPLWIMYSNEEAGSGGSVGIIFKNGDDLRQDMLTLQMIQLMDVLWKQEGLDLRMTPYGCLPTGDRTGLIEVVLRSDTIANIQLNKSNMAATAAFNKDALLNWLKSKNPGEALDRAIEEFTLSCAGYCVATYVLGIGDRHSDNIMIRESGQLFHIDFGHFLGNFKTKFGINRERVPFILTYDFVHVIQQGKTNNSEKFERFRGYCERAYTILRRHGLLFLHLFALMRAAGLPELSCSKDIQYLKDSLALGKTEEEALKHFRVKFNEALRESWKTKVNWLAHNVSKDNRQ
# T2 sequence (P27986 whole entry partner): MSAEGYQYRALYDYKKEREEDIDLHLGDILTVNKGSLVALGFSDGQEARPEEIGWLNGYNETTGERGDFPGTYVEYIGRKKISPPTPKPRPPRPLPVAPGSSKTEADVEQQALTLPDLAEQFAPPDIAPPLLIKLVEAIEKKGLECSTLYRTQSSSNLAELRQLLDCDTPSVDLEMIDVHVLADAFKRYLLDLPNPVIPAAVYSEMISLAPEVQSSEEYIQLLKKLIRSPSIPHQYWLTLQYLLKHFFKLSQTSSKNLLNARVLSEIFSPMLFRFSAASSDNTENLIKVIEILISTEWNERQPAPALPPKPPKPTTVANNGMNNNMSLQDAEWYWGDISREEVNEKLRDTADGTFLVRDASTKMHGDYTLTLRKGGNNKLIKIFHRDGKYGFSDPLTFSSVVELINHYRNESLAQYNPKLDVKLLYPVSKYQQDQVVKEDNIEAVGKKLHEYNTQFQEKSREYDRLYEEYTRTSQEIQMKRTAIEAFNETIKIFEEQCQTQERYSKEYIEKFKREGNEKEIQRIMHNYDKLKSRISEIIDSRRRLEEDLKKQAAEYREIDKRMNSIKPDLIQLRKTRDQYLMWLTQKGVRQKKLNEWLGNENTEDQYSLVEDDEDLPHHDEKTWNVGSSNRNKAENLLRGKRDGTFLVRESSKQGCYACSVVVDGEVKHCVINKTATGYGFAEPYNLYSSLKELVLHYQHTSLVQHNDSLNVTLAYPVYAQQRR
# Summary of the method: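 10-dose HTRF assay; kinase preincubated with compound 10 min at RT, then reacted with 10 μM PIP2 and 10 μM ATP for 30 min at 30 °C in HEPES pH 7.0 buffer. PIP3 product displaces biotin-PIP3 from the Eu/APC complex; signal converted to PIP3 via standard curve, IC50 by nonlinear regression.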
# [3] = test system: CD69+B220+ cells; experiment: B cell activation assay (IgD-stimulated splenocytes, CD69+B220+ cells by FACS); type: cell-based; details: IgD 3 μg/mL, 4 h; for CD69 @ 100 nM (% Inh): 100 nM compound; for IC50: Splenocyte
# Protocol: 1 Female mouse approximately 2 months old was euthanized with CO2 and the spleen removed. The tissue was homogenized with a polished glass microscope slide. The cells were collected in 5 mL complete medium (RPMI+10% FBS+pen/strep), placed in a 15 mL falcon tube and centrifuged at 500×g for 5 min. The supernatant was discarded and the pellet was resuspended in 3 mL of ACK lysis buffer (NH4Cl 0.17M, KHCO3 10 mM, EDTA-Na2 0.1 mM, pH 7.2), incubated at 37° C. for 5 min. 2 mL complete medium was added and the mixture centrifuged at 500×g for 5 min. The supernatant was discarded and the pellet resuspended in 1 mL complete medium. The mixture was passed through a […] cell strainer and collect in 50 mL falcon tube. Enough medium was added to have a total of 10 mL. The cells were counted and seeded in 24 or 48-well plate in 1 mL complete medium at 10^6 cells/mL. The plate was placed in a 37° C. incubator for 15 min. The cells were treated for 30 min at 37° C. with 100 nM test compound dissolved in 100% DMSO. 3 μL IgD (Accurate chemical and scientific corp.) was added at a final concentration of 3 μg/mL and the mixture incubated at 37° C. for 4 h. The cells were collected in 1.5 mL eppendorf tubes, centrifuged at 500×g for 5 min and then resuspended in 100 μL of PBS+2% FBS. The following antibodies were added: α-B220 PE (pharmingen #553090), α-CD69 APC (pharmingen #60689), live/dead fixable aqua dead cell stain kit (life technologies #L34957) all at 1:300, and the mixture incubated for 15 min at 4° C. in the dark. To this was added 900 μL of PBS+2% FBS and the mixture centrifuged at 500×g for 5 min. The supernatant was removed and the pellet resuspended in 300 μL of PBS+2% FBS and mixed well. The mixture was transferred to a cytometer tube. The samples were run in the FACS Canto II cytometer and quantified by the number of CD69+B220+ cells as a percentage of the total number of B220+ alive cells.
SMILES,BTK @ 0.01 μM (% Inh) [1] [% Inh],BTK @ 0.1 μM (% Inh) [1] [% Inh],PI3Kδ @ 0.01 μM (% Inh) [2] [% Inh],PI3Kδ @ 0.1 μM (% Inh) [2] [% Inh],IC50 [1] [nM],IC50 [2] [nM],IC50 ([3]; mouse splenocytes) [nM],CD69 @ 100 nM (% Inh) ([3]; mouse splenocytes),"CD69 @ 100 nM (% Inh) ([3]; mouse splenocytes, 0.1 µM)",BTK @ 1 μM (% Inh) [1] [% Inh],PI3Kδ @ 1 μM (% Inh) [2] [% Inh],IC50 ([3]; Mus musculus) [nM]
"COc1cc(-c2nn(C3Cc4ccccc4C3)c3ncnc(N)c23)ccc1O [Compound No. 85, 4-[4-amino-1-(2,3-dihydro-1H-inden-2-yl)-1H-pyrazolo[3,4-d]pyrimidin-3-yl]-2-methoxyphenol]",12.89,43.43,35.56,59.95,154,34.7,–,24.82 ± 9.20 (n = 3) % Inh,–,–,–,–
"COc1cc(-c2nn(C3Cc4ccccc4C3)c3ncnc(N)c23)cc(C#N)c1OC [Compound No. 105, 5-[4-amino-1-(2,3-dihydro-1H-inden-2-yl)-1H-pyrazolo[3,4-d]pyrimidin-3-yl]-2,3-dimethoxybenzonitrile]",–,27.50,–,16.0,–,–,–,24.25 ± 33.84 (n = 5) % Inh,–,59.18,34.72,–
"Nc1ncnc2c1c(-c1cc(O)cc(Cl)c1)nn2C1Cc2ccccc2C1 [Compound No. 67, 3-[4-amino-1-(2,3-dihydro-1H-inden-2-yl)-1H-pyrazolo[3,4-d]pyrimidin-3-yl]-5-chlorophenol]",–,43.63,–,84.5,142,4.1,–,65.11 ± 18.09 (n = 6) % Inh,–,87.64,90.92,109 ± 57
"Nc1ncnn2c(C3Cc4ccccc4C3)cc(-c3cc(O)c(F)c(F)c3)c12 [compound 125, 5-[4-amino-7-(2,3-dihydro-1H-inden-2-yl)pyrrolo[2,1-f][1,2,4]triazin-5-yl]-2,3-difluorophenol]",39.05,80.31,22.51,62.27,14.2,32.8,–,2.68 ± 2.32 (n = 3) % Inh,–,–,–,–
"COc1ccc(-c2nn(C3CCc4ccccc4C3)c3ncnc(N)c23)cn1 (racemic) [compound 15, 3-(6-methoxypyridin-3-yl)-1-(1,2,3,4-tetrahydronaphthalen-2-yl)-1H-pyrazolo[3,4-d]pyrimidin-4-amine]",–,–,–,–,565,67,–,−0.75 ± 6.93 (n = 3) % Inh,–,–,–,–
"Nc1ncnc2c1c(-c1cc(O)c(F)c(F)c1)cn2C1CCc2ccccc2C1 (stereo not shown) [compound 114, 5-[4-amino-7-(1,2,3,4-tetrahydronaphthalen-2-yl)-7H-pyrrolo[2,3-d]pyrimidin-5-yl]-2,3-difluorophenol]",41.16,86.29,41.19,84.46,20.2,23.2,–,10.19 ± 13.54 (n = 3) % Inh,–,–,–,–

# Now from value to compound, other results behind:
BTK @ 0.01 μM (% Inh) [1] [% Inh],BTK @ 0.1 μM (% Inh) [1] [% Inh],PI3Kδ @ 0.01 μM (% Inh) [2] [% Inh],PI3Kδ @ 0.1 μM (% Inh) [2] [% Inh],IC50 [1] [nM],IC50 [2] [nM],IC50 ([3]; mouse splenocytes) [nM],SMILES,CD69 @ 100 nM (% Inh) ([3]; mouse splenocytes),"CD69 @ 100 nM (% Inh) ([3]; mouse splenocytes, 0.1 µM)",BTK @ 1 μM (% Inh) [1] [% Inh],PI3Kδ @ 1 μM (% Inh) [2] [% Inh],IC50 ([3]; Mus musculus) [nM]
93.67,1.41,77.84,91.68,–,–,–,"N#Cc1cc(-c2nn(C3Cc4ccccc4C3)c3ncnc(N)c23)cc(O)c1F [compound 120, 5-[4-amino-1-(2,3-dihydro-1H-inden-2-yl)-1H-pyrazolo[3,4-d]pyrimidin-3-yl]-2-fluoro-3-hydroxybenzonitrile]",−99.28 ± 22.26 (n = 3) % Inh,–,–,–,–
67.39,93.84,33.04,68.13,9.5,27.7,–,"C=CC(=O)N1CC(n2nc(-c3cc(O)cc(F)c3)c3c(N)ncnc32)Cc2cc(C)ccc21 (single isomer, unassigned) [31a, 1-(3-(4-amino-3-(3-fluoro-5-hydroxyphenyl)-1H-pyrazolo[3,4-d]pyrimidin-1-yl)-6-methyl-3,4-dihydroquinolin-1(2H)-yl)prop-2-en-1-one]",–,15.47 ± 13.75 (n = 8) % Inh,–,–,–
−1.03,−0.64,53.08,90.11,–,0.269,104.5 ± 0.7,"N#Cc1cc(-c2nn(C3CCc4ccccc4C3)c3ncnc(N)c23)cc(O)c1F (stereo not shown) [compound 130, 5-[4-amino-1-(1,2,3,4-tetrahydronaphthalen-2-yl)-1H-pyrazolo[3,4-d]pyrimidin-3-yl]-2-fluoro-3-hydroxybenzonitrile]",67.53 ± 15.54 (n = 3) % Inh,–,–,–,–
–,–,–,–,1590,25.4,–,"COc1ccc(-c2nn(C3CCc4ccccc4C3)c3ncnc(N)c23)cc1F (single isomer, unassigned) [Compound No. 14b, 3-(3-fluoro-4-methoxyphenyl)-1-(1,2,3,4-tetrahydronaphthalen-2-yl)-1H-pyrazolo[3,4-d]pyrimidin-4-amine]",24.20 ± 12.24 (n = 6) % Inh,–,–,–,–
12.72,53.15,−3.68,25.32,–,–,–,"Nc1cc(-c2nn(C3CCc4ccccc4C3)c3ncnc(N)c23)cc(F)c1F (stereo not shown) [compound 122, 3-(3-amino-4,5-difluorophenyl)-1-(1,2,3,4-tetrahydronaphthalen-2-yl)-1H-pyrazolo[3,4-d]pyrimidin-4-amine]",2.58 ± 4.93 (n = 3) % Inh,–,–,–,–
19.98,63.94,56.4,91.22,–,–,–,"Nc1ncnc2c1c(-c1cc(O)c(F)c(F)c1)nn2C1Cc2ccc(F)cc2C1 (stereo not shown) [compound 128, 5-[4-amino-1-(5-fluoro-2,3-dihydro-1H-inden-2-yl)-1H-pyrazolo[3,4-d]pyrimidin-3-yl]-2,3-difluorophenol]",49.29 ± 5.74 (n = 3) % Inh,–,–,–,–
4.47,34.18,8.34,52.39,–,–,–,"Nc1ncnc2c1c(-c1cc(F)c3c(c1)NCCO3)nn2C1CCc2ccccc2C1 (stereo not shown) [compound 124, 3-(8-fluoro-3,4-dihydro-2H-1,4-benzoxazin-6-yl)-1-(1,2,3,4-tetrahydronaphthalen-2-yl)-1H-pyrazolo[3,4-d]pyrimidin-4-amine]",14.44 ± 2.64 (n = 3) % Inh,–,–,–,–
21.71,70.28,70.35,91.77,–,–,–,"Nc1ncnc2c1c(-c1cc(O)c(F)c(F)c1)nn2C1CCc2ccccc2C1 (stereo not shown) [compound 119, 5-[4-amino-1-(1,2,3,4-tetrahydronaphthalen-2-yl)-1H-pyrazolo[3,4-d]pyrimidin-3-yl]-2,3-difluorophenol]",47.52 ± 5.57 (n = 3) % Inh,–,–,–,–
–,23.06,–,70.85,–,–,–,"Nc1ncnc2c1c(-c1cc(O)cc(F)c1)nn2C1CCc2cc(F)ccc21 (stereo not shown) [compound 42, 3-[4-amino-1-(5-fluoro-2,3-dihydro-1H-inden-1-yl)-1H-pyrazolo[3,4-d]pyrimidin-3-yl]-5-fluorophenol]",22.71 ± 5.53 (n = 3) % Inh,–,–,–,–
